Data taken from patent US9113629B2, “4-amino-6-(4-substituted-phenyl)-picolinates and 6-amino-2-(4-substituted-phenyl)-pyrimidine-4-carboxylates and their use as herbicides” (DOW AGROSCIENCES LLC, priority 2013, dated 2015).

Legend:
Experiment in all cases: Post-emergent Test III, herbicidal activity in wheat and barley
Assay type in all cases: in vivo
[1] = tested on: TRZSS: wheat, including spring and winter (Triticum aestivum); conditions: 21 days after application; for GR20 TRZSS: probit analysis, dose for 20 percent growth reduction (crop); for pest or weed control at 35 g/ha: 35 g ai/ha; for pest or weed control at 70 g/ha: 70 g ai/ha
Summary of the method: (§1)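 Plants at the second to third true-leaf stage, grown in a greenhouse at about 18/17 °C with a 14 h photoperiod, were sprayed post-emergence at 187 L/ha with the high rate and ½× to 1/16× serial dilutions in an acetone/DMSO/crop-oil/surfactant carrier. Injury was rated visually at 21 d on a 0–100% scale, and GR20–GR90 were derived by probit analysis.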

[2] = tested on: VIOSS: wild pansy (Viola tricolor), field violet (Viola arvensis); conditions: 21 days after application; for GR50 VIOSS / GR80 VIOSS: probit analysis; for GR50 VIOSS: dose for 50 percent growth reduction; for GR80 VIOSS: dose for 80 percent growth reduction; for pest or weed control at 35 g/ha: 35 g ai/ha; for pest or weed control at 70 g/ha: 70 g ai/ha
Summary of the method: as §1

[3] = tested on: HORSS: barley, including spring and winter (Hordeum vulgare); conditions: 21 days after application; for GR20 HORSS: probit analysis, dose for 20 percent growth reduction (crop); for pest or weed control at 35 g/ha: 35 g ai/ha; for pest or weed control at 70 g/ha: 70 g ai/ha
Summary of the method: as §1

[4] = tested on: SASKR: Russian thistle (Salsola iberica); conditions: 21 days after application; for GR50 SASKR / GR80 SASKR: probit analysis; for GR50 SASKR: dose for 50 percent growth reduction; for GR80 SASKR: dose for 80 percent growth reduction; for pest or weed control at 35 g/ha: 35 g ai/ha; for pest or weed control at 70 g/ha: 70 g ai/ha
Summary of the method: as §1

[5] = tested on: KCHSC: kochia (Kochia scoparia); conditions: 21 days after application; for GR50 KCHSC / GR80 KCHSC: probit analysis; for GR50 KCHSC: dose for 50 percent growth reduction; for GR80 KCHSC: dose for 80 percent growth reduction; for pest or weed control at 35 g/ha: 35 g ai/ha; for pest or weed control at 70 g/ha: 70 g ai/ha
Summary of the method: as §1

[6] = tested on: VERPE: bird's-eye speedwell (veronica persica); conditions: 21 days after application; for GR50 VERPE / GR80 VERPE: probit analysis; for GR50 VERPE: dose for 50 percent growth reduction; for GR80 VERPE: dose for 80 percent growth reduction; for pest or weed control at 35 g/ha: 35 g ai/ha; for pest or weed control at 70 g/ha: 70 g ai/ha
Summary of the method: as §1

[7] = tested on: MATSS: scented mayweed (Matricaria chamomilla), pineappleweed (Matricaria matricarioides); conditions: 21 days after application; for GR50 MATSS / GR80 MATSS: probit analysis; for GR50 MATSS: dose for 50 percent growth reduction; for GR80 MATSS: dose for 80 percent growth reduction; for pest or weed control at 35 g/ha: 35 g ai/ha; for pest or weed control at 70 g/ha: 70 g ai/ha
Summary of the method: as §1

[8] = Triticum aestivum, post-emergence, 504 h, read-out: Visual Gorowth Reduction (%) 21 days After Application TRZSS
[9] = Viola tricolor, post-emergence, 504 h, read-out: Visual Gorowth Reduction (%) 21 days After Application VIOSS
[10] = Hordeum vulgare, post-emergence, 504 h, read-out: Visual Gorowth Reduction (%) 21 days After Application HORSS
[11] = Salsola tragus, post-emergence, 504 h, read-out: Visual Gorowth Reduction (%) 21 days After Application SASKR
[12] = Bassia scoparia, post-emergence, 504 h, read-out: Visual Gorowth Reduction (%) 21 days After Application KCHSC
[13] = Veronica persica, post-emergence, 504 h, read-out: Visual Gorowth Reduction (%) 21 days After Application VERPE
[14] = Matricaria chamomilla, post-emergence, 504 h, read-out: Visual Gorowth Reduction (%) 21 days After Application MATSS

Nc1c(F)c(-c2ccc(I)cc2F)nc(C(=O)O)c1Cl [Compound 169]
pest or weed control at 37.1 g/ha ([1]; Triticum aestivum, post-emergence, 504 h, 37.1 g ai/ha, read-out: Visual Gorowth Reduction (%) 21 days After Application TRZSS): 75 to 84% | pest or weed control at 74.3 g/ha ([1]; Triticum aestivum, post-emergence, 504 h, 74.3 g ai/ha, read-out: Visual Gorowth Reduction (%) 21 days After Application TRZSS): 85 to 94% | pest or weed control at 149 g/ha ([1]; Triticum aestivum, post-emergence, 504 h, 149 g ai/ha, read-out: Visual Gorowth Reduction (%) 21 days After Application TRZSS): 85 to 94% | GR20 TRZSS [1]: 1 g ai/ha | pest or weed control at 37.1 g/ha ([2]; Viola tricolor, post-emergence, 504 h, 37.1 g ai/ha, read-out: Visual Gorowth Reduction (%) 21 days After Application VIOSS): 75 to 84% | pest or weed control at 74.3 g/ha ([2]; Viola tricolor, post-emergence, 504 h, 74.3 g ai/ha, read-out: Visual Gorowth Reduction (%) 21 days After Application VIOSS): 95 to 100% | pest or weed control at 149 g/ha ([2]; Viola tricolor, post-emergence, 504 h, 149 g ai/ha, read-out: Visual Gorowth Reduction (%) 21 days After Application VIOSS): 95 to 100% | GR50 VIOSS [2]: 21 g ai/ha | GR80 VIOSS [2]: 36 g ai/ha | pest or weed control at 37.1 g/ha ([3]; Hordeum vulgare, post-emergence, 504 h, 37.1 g ai/ha, read-out: Visual Gorowth Reduction (%) 21 days After Application HORSS): 95 to 100% | pest or weed control at 74.3 g/ha ([3]; Hordeum vulgare, post-emergence, 504 h, 74.3 g ai/ha, read-out: Visual Gorowth Reduction (%) 21 days After Application HORSS): 95 to 100% | pest or weed control at 149 g/ha ([3]; Hordeum vulgare, post-emergence, 504 h, 149 g ai/ha, read-out: Visual Gorowth Reduction (%) 21 days After Application HORSS): 95 to 100% | GR20 HORSS [3]: 1 g ai/ha | pest or weed control at 37.1 g/ha ([4]; Salsola tragus, post-emergence, 504 h, 37.1 g ai/ha, read-out: Visual Gorowth Reduction (%) 21 days After Application SASKR): 60 to 74% | pest or weed control at 74.3 g/ha ([4]; Salsola tragus, post-emergence, 504 h, 74.3 g ai/ha, read-out: Visual Gorowth Reduction (%) 21 days After Application SASKR): 75 to 84% | pest or weed control at 149 g/ha ([4]; Salsola tragus, post-emergence, 504 h, 149 g ai/ha, read-out: Visual Gorowth Reduction (%) 21 days After Application SASKR): 85 to 94% | GR50 SASKR [4]: 5 g ai/ha | GR80 SASKR [4]: 83 g ai/ha | pest or weed control at 37.1 g/ha ([5]; Bassia scoparia, post-emergence, 504 h, 37.1 g ai/ha, read-out: Visual Gorowth Reduction (%) 21 days After Application KCHSC): 60 to 74% | pest or weed control at 74.3 g/ha ([5]; Bassia scoparia, post-emergence, 504 h, 74.3 g ai/ha, read-out: Visual Gorowth Reduction (%) 21 days After Application KCHSC): 85 to 94% | pest or weed control at 149 g/ha ([5]; Bassia scoparia, post-emergence, 504 h, 149 g ai/ha, read-out: Visual Gorowth Reduction (%) 21 days After Application KCHSC): 85 to 94% | GR50 KCHSC [5]: 8 g ai/ha | GR80 KCHSC [5]: 72 g ai/ha | pest or weed control at 37.1 g/ha ([6]; Veronica persica, post-emergence, 504 h, 37.1 g ai/ha, read-out: Visual Gorowth Reduction (%) 21 days After Application VERPE): 85 to 94% | pest or weed control at 74.3 g/ha ([6]; Veronica persica, post-emergence, 504 h, 74.3 g ai/ha, read-out: Visual Gorowth Reduction (%) 21 days After Application VERPE): 95 to 100% | pest or weed control at 149 g/ha ([6]; Veronica persica, post-emergence, 504 h, 149 g ai/ha, read-out: Visual Gorowth Reduction (%) 21 days After Application VERPE): 95 to 100% | GR50 VERPE [6]: 19 g ai/ha | GR80 VERPE [6]: 37 g ai/ha | pest or weed control at 37.1 g/ha ([7]; Matricaria chamomilla, post-emergence, 504 h, 37.1 g ai/ha, read-out: Visual Gorowth Reduction (%) 21 days After Application MATSS): 75 to 84% | pest or weed control at 74.3 g/ha ([7]; Matricaria chamomilla, post-emergence, 504 h, 74.3 g ai/ha, read-out: Visual Gorowth Reduction (%) 21 days After Application MATSS): 95 to 100% | pest or weed control at 149 g/ha ([7]; Matricaria chamomilla, post-emergence, 504 h, 149 g ai/ha, read-out: Visual Gorowth Reduction (%) 21 days After Application MATSS): 95 to 100% | GR50 MATSS [7]: 15 g ai/ha | GR80 MATSS [7]: 35 g ai/ha

COC(=O)c1nc(-c2ccc(I)c(F)c2F)cc(N)c1Cl [Compound 129, Methyl 4-amino-3-chloro-6-(2,3-difluoro-4-iodophenyl)picolinate]
pest or weed control at 35 g/ha [1, 8]: 75 to 84% | pest or weed control at 70 g/ha [1, 8]: 85 to 94% | GR20 TRZSS [1]: 1 g ai/ha | pest or weed control at 35 g/ha [2, 9]: 75 to 84% | pest or weed control at 70 g/ha [2, 9]: 95 to 100% | GR50 VIOSS [2]: 17 g ai/ha | GR80 VIOSS [2]: 34 g ai/ha | pest or weed control at 35 g/ha [3, 10]: 85 to 94% | pest or weed control at 70 g/ha [3, 10]: 85 to 94% | GR20 HORSS [3]: 1 g ai/ha | pest or weed control at 35 g/ha [4, 11]: 75 to 84% | pest or weed control at 70 g/ha [4, 11]: 85 to 94% | GR50 SASKR [4]: 6 g ai/ha | GR80 SASKR [4]: 41 g ai/ha | pest or weed control at 35 g/ha [5, 12]: 85 to 94% | pest or weed control at 70 g/ha [5, 12]: 95 to 100% | GR50 KCHSC [5]: 7 g ai/ha | GR80 KCHSC [5]: 21 g ai/ha | pest or weed control at 35 g/ha [6, 13]: 30 to 44% | pest or weed control at 70 g/ha [6, 13]: 45 to 59% | GR50 VERPE [6]: 92 g ai/ha | GR80 VERPE [6]: >140 g ai/ha | pest or weed control at 35 g/ha [7, 14]: 0 to 29% | pest or weed control at 70 g/ha [7, 14]: 30 to 44% | GR50 MATSS [7]: 89 g ai/ha | GR80 MATSS [7]: 131 g ai/ha

COc1c(N)nc(-c2ccc(I)c(F)c2F)nc1C(=O)O [Compound 89]
pest or weed control at 35 g/ha [1, 8]: 75 to 84% | pest or weed control at 70 g/ha [1, 8]: 85 to 94% | GR20 TRZSS [1]: 1 g ai/ha | pest or weed control at 35 g/ha [2, 9]: 95 to 100% | pest or weed control at 70 g/ha [2, 9]: 95 to 100% | GR50 VIOSS [2]: 11 g ai/ha | GR80 VIOSS [2]: 19 g ai/ha | pest or weed control at 35 g/ha [3, 10]: 60 to 74% | pest or weed control at 70 g/ha [3, 10]: 60 to 74% | GR20 HORSS [3]: 3 g ai/ha | pest or weed control at 35 g/ha [4, 11]: 85 to 94% | pest or weed control at 70 g/ha [4, 11]: 85 to 94% | GR50 SASKR [4]: 9 g ai/ha | GR80 SASKR [4]: 21 g ai/ha | pest or weed control at 35 g/ha [5, 12]: 85 to 94% | pest or weed control at 70 g/ha [5, 12]: 85 to 94% | GR50 KCHSC [5]: 12 g ai/ha | GR80 KCHSC [5]: 25 g ai/ha | pest or weed control at 35 g/ha [6, 13]: 95 to 100% | pest or weed control at 70 g/ha [6, 13]: 95 to 100% | GR50 VERPE [6]: 3 g ai/ha | GR80 VERPE [6]: 6 g ai/ha | pest or weed control at 35 g/ha [7, 14]: 75 to 84% | pest or weed control at 70 g/ha [7, 14]: 85 to 94% | GR50 MATSS [7]: 14 g ai/ha | GR80 MATSS [7]: 36 g ai/ha
